Data published in the NIST ThermoML archive (doi:10.1016/j.jct.2019.05.021).
Numbers after ± are expanded uncertainties.

Experiment: xn = mol fraction of the nth substance listed
Settings: 100 kPa, Liquid; for viscosity: Falling or rolling sphere viscometry; for mass density: Vibrating tube method

CCCCCCCCCCCC(=O)OC [methyl dodecanoate] + CC1CCCCC1
Settings	mass density [kg/m3]	viscosity [mPa·s]
293.15 K, x2 = 0	869.3 ± 1.7	3.151 ± 0.067
293.15 K, x2 = 0.1	863.68 ± 1.7	2.838 ± 0.061
293.15 K, x2 = 0.2	857.47 ± 1.7	2.545 ± 0.054
293.15 K, x2 = 0.3	850.62 ± 1.7	2.264 ± 0.048
293.15 K, x2 = 0.4001	842.9 ± 1.7	2 ± 0.043
293.15 K, x2 = 0.5001	834.34 ± 1.7	1.743 ± 0.037
293.15 K, x2 = 0.6	824.66 ± 1.6	1.501 ± 0.032
293.15 K, x2 = 0.6999	813.62 ± 1.6	1.28 ± 0.027
293.15 K, x2 = 0.8	801 ± 1.6	1.071 ± 0.023
293.15 K, x2 = 0.8999	786.46 ± 1.6	0.887 ± 0.019
298.15 K, x2 = 0	865.39 ± 1.7	2.792 ± 0.06
298.15 K, x2 = 0.1	859.76 ± 1.7	2.527 ± 0.054
298.15 K, x2 = 0.2	853.54 ± 1.7	2.28 ± 0.049
298.15 K, x2 = 0.3	846.68 ± 1.7	2.041 ± 0.044
298.15 K, x2 = 0.4001	838.94 ± 1.7	1.811 ± 0.039
298.15 K, x2 = 0.5001	830.36 ± 1.7	1.587 ± 0.034
298.15 K, x2 = 0.6	820.65 ± 1.6	1.373 ± 0.029
298.15 K, x2 = 0.6999	809.56 ± 1.6	1.177 ± 0.025
298.15 K, x2 = 0.8	796.88 ± 1.6	0.992 ± 0.021
298.15 K, x2 = 0.8999	782.25 ± 1.6	0.825 ± 0.018
303.15 K, x2 = 0	861.46 ± 1.7	2.504 ± 0.054
303.15 K, x2 = 0.1	855.83 ± 1.7	2.279 ± 0.049
303.15 K, x2 = 0.2	849.6 ± 1.7	2.06 ± 0.044
303.15 K, x2 = 0.3	842.72 ± 1.7	1.85 ± 0.04
303.15 K, x2 = 0.4001	834.97 ± 1.7	1.646 ± 0.035
303.15 K, x2 = 0.5001	826.36 ± 1.7	1.448 ± 0.031
303.15 K, x2 = 0.6	816.61 ± 1.6	1.261 ± 0.027
303.15 K, x2 = 0.6999	805.48 ± 1.6	1.087 ± 0.023
303.15 K, x2 = 0.8	792.75 ± 1.6	0.919 ± 0.02
303.15 K, x2 = 0.8999	778.03 ± 1.6	0.77 ± 0.016
308.15 K, x2 = 0	857.53 ± 1.7	2.263 ± 0.048
308.15 K, x2 = 0.1	851.9 ± 1.7	2.064 ± 0.044
308.15 K, x2 = 0.2	845.67 ± 1.7	1.876 ± 0.04
308.15 K, x2 = 0.3	838.76 ± 1.7	1.693 ± 0.036
308.15 K, x2 = 0.4001	830.99 ± 1.7	1.512 ± 0.032
308.15 K, x2 = 0.5001	822.36 ± 1.6	1.339 ± 0.029
308.15 K, x2 = 0.6	812.57 ± 1.6	1.168 ± 0.025
308.15 K, x2 = 0.6999	801.4 ± 1.6	1.007 ± 0.022
308.15 K, x2 = 0.8	788.6 ± 1.6	0.858 ± 0.018
308.15 K, x2 = 0.8999	773.79 ± 1.6	0.722 ± 0.015
313.15 K, x2 = 0	853.61 ± 1.7	2.049 ± 0.044
313.15 K, x2 = 0.1	847.96 ± 1.7	1.877 ± 0.04
313.15 K, x2 = 0.2	841.71 ± 1.7	1.714 ± 0.037
313.15 K, x2 = 0.3	834.79 ± 1.7	1.552 ± 0.033
313.15 K, x2 = 0.4001	827.01 ± 1.7	1.393 ± 0.03
313.15 K, x2 = 0.5001	818.35 ± 1.6	1.237 ± 0.026
313.15 K, x2 = 0.6	808.52 ± 1.6	1.086 ± 0.023
313.15 K, x2 = 0.6999	797.31 ± 1.6	0.937 ± 0.02
313.15 K, x2 = 0.8	784.44 ± 1.6	0.801 ± 0.017
313.15 K, x2 = 0.8999	769.54 ± 1.6	0.676 ± 0.014
318.15 K, x2 = 0	849.69 ± 1.7	1.875 ± 0.04
318.15 K, x2 = 0.1	844.02 ± 1.7	1.725 ± 0.037
318.15 K, x2 = 0.2	837.77 ± 1.7	1.581 ± 0.034
318.15 K, x2 = 0.3	830.83 ± 1.7	1.437 ± 0.031
318.15 K, x2 = 0.4001	823.02 ± 1.6	1.294 ± 0.028
318.15 K, x2 = 0.5001	814.32 ± 1.6	1.151 ± 0.025
318.15 K, x2 = 0.6	804.45 ± 1.6	1.012 ± 0.022
318.15 K, x2 = 0.6999	793.18 ± 1.6	0.879 ± 0.019
318.15 K, x2 = 0.8	780.26 ± 1.6	0.754 ± 0.016
318.15 K, x2 = 0.8999	765.28 ± 1.5	0.638 ± 0.014
323.15 K, x2 = 0	845.76 ± 1.7	1.729 ± 0.037
323.15 K, x2 = 0.1	840.08 ± 1.7	1.592 ± 0.034
323.15 K, x2 = 0.2	833.81 ± 1.7	1.461 ± 0.031
323.15 K, x2 = 0.3	826.86 ± 1.7	1.332 ± 0.028
323.15 K, x2 = 0.4001	819.02 ± 1.6	1.202 ± 0.026
323.15 K, x2 = 0.5001	810.28 ± 1.6	1.073 ± 0.023
323.15 K, x2 = 0.6	800.37 ± 1.6	0.946 ± 0.02
323.15 K, x2 = 0.6999	789.06 ± 1.6	0.826 ± 0.018
323.15 K, x2 = 0.8	776.07 ± 1.6	0.711 ± 0.015
323.15 K, x2 = 0.8999	761 ± 1.5	0.603 ± 0.013
